Target: P. falciparum apicoplast DNA polymerase (Pf-apPOL) (Plasmodium falciparum, UniProt Q8ILY1)
Assay: Fluorescence-based high-throughput DNA polymerase assay (molecular beacon), primary screen and dose-response;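 on % inhibition ApPOL 90': test concentration in µM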;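 on % inhibition apPOL 180': test concentration in µM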
Type: biochemical
Conditions: for DNA Pol: 90 min, 10 µM
Outline: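 Single-point screening used 10 µM compound with 20 nM polymerase, 20 nM hairpin substrate and 6 µM dNTPs for 90 min at 25 °C. Confirmatory titrations (2.5–80 µM) followed fluorescence at three times, and IC50 was derived from a fit including a cooperativity term n.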

[1] = 'DNA Pol', screening value, unit not given
[2] = primary screen hit value, DNA Pol (186 hits)

P. falciparum apicoplast DNA polymerase (Pf-apPOL), sequence (Q8ILY1 entry or part of it): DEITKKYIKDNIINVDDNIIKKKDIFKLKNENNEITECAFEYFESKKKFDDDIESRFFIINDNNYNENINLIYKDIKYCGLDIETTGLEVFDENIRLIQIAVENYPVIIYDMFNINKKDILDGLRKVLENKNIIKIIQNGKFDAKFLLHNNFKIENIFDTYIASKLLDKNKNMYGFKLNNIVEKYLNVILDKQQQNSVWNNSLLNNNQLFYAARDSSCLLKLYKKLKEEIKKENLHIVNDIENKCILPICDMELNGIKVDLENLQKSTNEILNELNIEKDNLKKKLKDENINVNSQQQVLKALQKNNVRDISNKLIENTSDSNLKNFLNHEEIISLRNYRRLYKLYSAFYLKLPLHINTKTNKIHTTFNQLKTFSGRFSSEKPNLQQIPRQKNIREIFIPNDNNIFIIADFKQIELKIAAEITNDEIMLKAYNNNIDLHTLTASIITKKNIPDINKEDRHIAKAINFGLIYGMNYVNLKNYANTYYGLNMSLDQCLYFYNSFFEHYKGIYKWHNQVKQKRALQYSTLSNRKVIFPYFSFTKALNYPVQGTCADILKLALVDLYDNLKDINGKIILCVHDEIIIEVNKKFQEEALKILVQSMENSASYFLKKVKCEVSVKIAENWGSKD

O=C(O)CC1=NN(c2cccc([N+](=O)[O-])c2)C(=O)C1 [KU0100531]
DNA Pol [1]: 37 | % inhibition Apo pol 10' (DRC-1, concentration 2.5): 32.2581% | % inhibition Apo pol 10' (DRC-1, concentration 5): 49.6373% | % inhibition Apo pol 10' (DRC-1, concentration 10): 61.4137% | % inhibition Apo pol 10' (DRC-1, concentration 20): 68.5645% | % inhibition Apo pol 10' (DRC-1, concentration 40): 76.8361% | % inhibition Apo pol 10' (DRC-1, concentration 80): 88.3009% | % inhibition Apol 90' (DRC-1, 90', concentration 2.5): 15.7319% | % inhibition Apol 90' (DRC-1, 90', concentration 5): 18.7201% | % inhibition Apol 90' (DRC-1, 90', concentration 10): 28.2695% | % inhibition Apol 90' (DRC-1, 90', concentration 20): 34.3533% | % inhibition Apol 90' (DRC-1, 90', concentration 40): 46.1706% | % inhibition Apol 90' (DRC-1, 90', concentration 80): 68.1347% | % inhibition apPOL 180' (DRC-1, 180', concentration 2.5): 13.4028% | % inhibition apPOL 180' (DRC-1, 180', concentration 5): 8.316% | % inhibition apPOL 180' (DRC-1, 180', concentration 10): 15.9728% | % inhibition apPOL 180' (DRC-1, 180', concentration 20): 20.4489% | % inhibition apPOL 180' (DRC-1, 180', concentration 40): 28.0717% | % inhibition apPOL 180' (DRC-1, 180', concentration 80): 50.5655% | % inhibition Apo pol 5' (DRC-2, 5', concentration 2.5): 25% | % inhibition Apo pol 5' (DRC-2, 5', concentration 5): 36% | % inhibition Apo pol 5' (DRC-2, 5', concentration 10): 45% | % inhibition Apo pol 5' (DRC-2, 5', concentration 20): 50% | % inhibition Apo pol 5' (DRC-2, 5', concentration 40): 58% | % inhibition Apo pol 5' (DRC-2, 5', concentration 80): 66% | % inhibition Apol 40' (DRC-2, 40', concentration 2.5): 12% | % inhibition Apol 40' (DRC-2, 40', concentration 5): 21% | % inhibition Apol 40' (DRC-2, 40', concentration 10): 32% | % inhibition Apol 40' (DRC-2, 40', concentration 20): 39% | % inhibition Apol 40' (DRC-2, 40', concentration 40): 54% | % inhibition Apol 40' (DRC-2, 40', concentration 80): 71% | % inhibition ApPOL 90' (DRC-2, 90', concentration 2.5): 6% | % inhibition ApPOL 90' (DRC-2, 90', concentration 5): 15% | % inhibition ApPOL 90' (DRC-2, 90', concentration 10): 24% | % inhibition ApPOL 90' (DRC-2, 90', concentration 20): 31% | % inhibition ApPOL 90' (DRC-2, 90', concentration 40): 48% | % inhibition ApPOL 90' (DRC-2, 90', concentration 80): 71% | % inhibition apPOL 180' (DRC-2, 180', concentration 2.5): 2% | % inhibition apPOL 180' (DRC-2, 180', concentration 5): 7.6% | % inhibition apPOL 180' (DRC-2, 180', concentration 10): 17% | % inhibition apPOL 180' (DRC-2, 180', concentration 20): 23% | % inhibition apPOL 180' (DRC-2, 180', concentration 40): 41% | % inhibition apPOL 180' (DRC-2, 180', concentration 80): 70% | % inhibition Apol 40' (conc 80 (unit not given), 40', DRC-2): 71% | % inhibition ApPOL 90' (conc 80 (unit not given), 90', DRC-2): 71% | DNA Pol [2]: 37

O=C(O)CC1SC(c2ccc3c(c2)OCO3)=NC1=O (centres unmarked) [Molecule 69, OC(=O)CC1SC(=NC1=O)c1ccc2c(c1)OCO2]
DNA Pol [1]: 73 | % inhibition Apo pol 10' (DRC-1, concentration 2.5): 9.093% | % inhibition Apo pol 10' (DRC-1, concentration 5): 10.6697% | % inhibition Apo pol 10' (DRC-1, concentration 10): 24.5481% | % inhibition Apo pol 10' (DRC-1, concentration 20): 37.0336% | % inhibition Apo pol 10' (DRC-1, concentration 40): 59.8933% | % inhibition Apo pol 10' (DRC-1, concentration 80): 73.2432% | % inhibition Apol 90' (DRC-1, 90', concentration 2.5): 0.8612% | % inhibition Apol 90' (DRC-1, 90', concentration 5): 2.259% | % inhibition Apol 90' (DRC-1, 90', concentration 10): 10.3106% | % inhibition Apol 90' (DRC-1, 90', concentration 20): 18.6533% | % inhibition Apol 90' (DRC-1, 90', concentration 40): 43.3337% | % inhibition Apol 90' (DRC-1, 90', concentration 80): 58.9692% | % inhibition apPOL 180' (DRC-1, 180', concentration 2.5): -4.62% | % inhibition apPOL 180' (DRC-1, 180', concentration 5): -4.006% | % inhibition apPOL 180' (DRC-1, 180', concentration 10): 2.363% | % inhibition apPOL 180' (DRC-1, 180', concentration 20): 9.6301% | % inhibition apPOL 180' (DRC-1, 180', concentration 40): 35.5256% | % inhibition apPOL 180' (DRC-1, 180', concentration 80): 52.4762% | % inhibition Apo pol 5' (DRC-2, 5', concentration 2.5): 14% | % inhibition Apo pol 5' (DRC-2, 5', concentration 5): 9% | % inhibition Apo pol 5' (DRC-2, 5', concentration 10): 20% | % inhibition Apo pol 5' (DRC-2, 5', concentration 20): 29% | % inhibition Apo pol 5' (DRC-2, 5', concentration 40): 41% | % inhibition Apo pol 5' (DRC-2, 5', concentration 80): 49% | % inhibition Apol 40' (DRC-2, 40', concentration 2.5): 9% | % inhibition Apol 40' (DRC-2, 40', concentration 5): 7% | % inhibition Apol 40' (DRC-2, 40', concentration 10): 16% | % inhibition Apol 40' (DRC-2, 40', concentration 20): 23% | % inhibition Apol 40' (DRC-2, 40', concentration 40): 37% | % inhibition Apol 40' (DRC-2, 40', concentration 80): 51% | % inhibition ApPOL 90' (DRC-2, 90', concentration 2.5): 5.65% | % inhibition ApPOL 90' (DRC-2, 90', concentration 5): 4% | % inhibition ApPOL 90' (DRC-2, 90', concentration 10): 10% | % inhibition ApPOL 90' (DRC-2, 90', concentration 20): 16% | % inhibition ApPOL 90' (DRC-2, 90', concentration 40): 33% | % inhibition ApPOL 90' (DRC-2, 90', concentration 80): 50% | % inhibition apPOL 180' (DRC-2, 180', concentration 2.5): -0.895% | % inhibition apPOL 180' (DRC-2, 180', concentration 5): -1.56% | % inhibition apPOL 180' (DRC-2, 180', concentration 10): 3% | % inhibition apPOL 180' (DRC-2, 180', concentration 20): 7% | % inhibition apPOL 180' (DRC-2, 180', concentration 40): 23% | % inhibition apPOL 180' (DRC-2, 180', concentration 80): 43% | % inhibition Apol 40' (conc 2.5 (unit not given), 40', DRC-2): 9% | % inhibition Apo pol 5' (conc 5 (unit not given), 5', DRC-2): 9% | % inhibition Apol 40' (conc 5 (unit not given), 40', DRC-2): 7% | % inhibition Apol 40' (conc 10 (unit not given), 40', DRC-2): 16% | % inhibition Apol 40' (conc 20 (unit not given), 40', DRC-2): 23% | % inhibition ApPOL 90' (conc 20 (unit not given), 90', DRC-2): 16% | % inhibition apPOL 180' (conc 20 (unit not given), 180', DRC-2): 7% | % inhibition apPOL 180' (conc 40 (unit not given), 180', DRC-2): 23% | DNA Pol [2]: 73
